# Experimental data taken from patent US20190054041A1, “USE OF NOOTKATONE” (INSTITUTE OF TROPICAL BIOSCIENCE AND BIOTECHOLOGY CHINESE …, priority 2016, published 2019).
# Columns and labels:
# patients with depression = assay: Clinical efficacy observation by reduction rate of HAM-D; type: in vivo, human; conditions: 40 patients, oral 1.5 mg nootkatone monomer/Kg/time, twice a day, 6 weeks
# Description: Forty patients were selected, wherein 20 were male and 20 were female, and their disease durations were from 1 month to 2 years. Diagnosis criteria of depression that conformed to Chinese Classification and Diagnostic Criteria of Mental Disorders scored […] according to the first 17 items in the Hamilton Depression Rating Scale (HAM-D) shown in Table 4. First-onset patients, or patients that had not taken antidepressants and antipsychotics and had not been subjected to electric shock therapy over the past week, and patients with depressive episodes of unipolar affective disorder, aged 20-50 years. Patients having depressive disorder caused by bipolar affective disorder and other causes, severe suicidal tendency, and severe abnormalities in laboratory tests (pregnant or lactating women) were eliminated.
# Comment: 0 to 4 in the items of Standard for Evaluation and Point referred to the scores, and the standard for evaluation is: the total score <7 means normality; the total score between 7 and 17 means possible depression; the total score between 17 and 24 means definite depression; and the total score >24 means severe depression.
# Nootkatone preparation was used to treat the 40 patients, and the administration manner was: orally taking, 1.5 mg nootkatone monomer/Kg/time, twice a day, and 6 weeks were one course of treatment. […] After 1 course of treatment, reduction rate of HAM-D was used to measure the curative efficacy of the traditional Chinese medicine on patients, reduction rate of HAM-D=(total scores before the treatment−total scores after the treatment)/total scores before the treatment×100%.
# The standard of curative efficacy evaluation is hereinafter:
# cure: reduction rate of HAMD is >75%;
# improved: reduction rate of HAMD is from 25% to […];
# invalid: reduction rate of HAMD is <25%.
# ICR mice [1] = conditions: intragastric once a day for 14 days, nootkatone 1-2 mg/Kg, Prozac 20 mg/Kg
# ICR mice [2] = assay: Tail suspension test of mice; conditions: once a day for 14 days, 1.5 h after last administration, last 4 min of 6 min, blank control 151.1 ± 20.1, **P < 0.01
# ICR mice [3] = assay: Forced swimming test of mice; conditions: once a day for 14 days, 1.5 h after last administration, last 4 min of 6 min, blank control 148.1 ± 18.9, **P < 0.01
# ICR mice [4] = assay: 5-HTP induced head twitching mouse model; conditions: once a day for 14 days, 150 mg/Kg 5-HTP i.p. 0.5 h after last administration, counted in 20 min, blank control 34.1 ± 18.1, **P < 0.01
# [5] = 1 mg/Kg (small dose) intragastric
# [6] = 1.5 mg/Kg (medium dose) intragastric
# [7] = 2 mg/Kg (large dose) intragastric
Compound,Adverse reactions in patients (patients with depression),Curative effective rate (patients with depression) [%],Share of patients invalid (reduction rate of HAMD <25%) (patients with depression; 2 cases) [%],Share of patients improved (reduction rate of HAMD from 25% to 50%) (patients with depression; 10 cases) [%],Share of patients cured (reduction rate of HAMD >75%) (patients with depression; 14 cases) [%],Share of patients significantly improved (reduction rate of HAMD from 51% to 75%) (patients with depression; 14 cases) [%],Toxicity judged from weight and fur appearance of mice (ICR mice [1]),"Immobility Time, tail suspension test (ICR mice [2]; [5])","Immobility Time, tail suspension test (ICR mice [2]; [6])","Immobility Time, tail suspension test (ICR mice [2]; [7])","Immobility Time, forced swimming test (ICR mice [3]; [5])","Immobility Time, forced swimming test (ICR mice [3]; [6])","Immobility Time, forced swimming test (ICR mice [3]; [7])",Head-Twitching Number (ICR mice [4]; [5]),Head-Twitching Number (ICR mice [4]; [6]),Head-Twitching Number (ICR mice [4]; [7]),"Weight of mice before administration, one week and 2 weeks after administration (ICR mice [1])","Immobility Time, tail suspension test (ICR mice [2]; 20 mg/Kg intragastric)","Immobility Time, forced swimming test (ICR mice [3]; 20 mg/Kg intragastric)",Head-Twitching Number (ICR mice [4]; 20 mg/Kg intragastric)
"C=C(C)[C@@H]1CCC2=CC(=O)C[C@@H](C)[C@]2(C)C1 [Nootkatone, nootkatone]",no case has adverse reactions,95,5,25,35,35,neither nootkatone nor the positive drug Prozac has toxicity,84.0 ± 17.6** S,80.2 ± 21.6** S,75.1 ± 19.6** S,74.0 ± 26.9** s,70.2 ± 22.3** s,66.1 ± 21.6** s,58.0 ± 26.2** Time,60.2 ± 25.1** Time,63.1 ± 22.5** Time,–,–,–,–
"CNCCC(Oc1ccc(C(F)(F)F)cc1)c1ccccc1 (centres unmarked) [Prozac, fluoxetine, reference compound]",–,–,–,–,–,–,–,–,–,–,–,–,–,–,–,–,no significant difference,87.9 ± 22.0** S,80.9 ± 20.4** s,57.9 ± 10.4** Time
